Measured values: PMC8952208, “Synthesis, Antiplasmodial, and Antileukemia Activity of Dihydroartemisinin–HDAC Inhibitor Hybrids as Multitarget Drugs” (Pharmaceuticals, 2022)

Tests used:
P. falciparum Dd2 = test: microbe, parasite or virus in culture; format: cell-based; conditions: Plasmodium falciparum, DD2, 72 h, read-out: PfDd2 IC50
Description: (§1) [38, 39] […] After three days of incubation at 37 °C, 5% CO2 and 5% O2 plates were frozen until analyzed by HRP2-ELISA. All compounds were evaluated in duplicate in at least two independent experiments. The IC50 was determined by nonlinear regression analysis of log concentration-response curves using the drc-package v3.0.1 [40] of R v4.0.5..

P. falciparum 3D7 = test: microbe, parasite or virus in culture; format: cell-based; conditions: Plasmodium falciparum, 3D7, 72 h; asexual blood stages, three days incubation; n ≥ 2 in duplicate, mean ± SD; read-out: Pf3D7 IC50
Description: as §1

Healthy Fibroblast 1 = test: Cytotoxicity against healthy fibroblast 1; format: cell-based; conditions: Homo sapiens, healthy individually-derived fibroblasts
Description: (§2) Healthy individually-derived fibroblasts were cultured in DMEM supplemented with 10% FCS. Regular cell line authentication was performed short tandem repeat (STR) analysis (DNA fingerprinting), followed by comparison with the original DSMZ cell line database.
(§3) Cell viability assay was performed with leukemic cell lines after 72 h incubation with the respective inhibitors using ATP-based CellTiter-Glo luminescent assay (Promega, Madison, WI, USA).

A2780 cells = test: MTT cell viability assay; format: cell-based; conditions: Homo sapiens, 72 h, n ≥ 3 in triplicate, mean ± SD
Description: Reagents were obtained from PAN Biotech, Aidenbach Germany. The cell line was cultured at 37 °C under humidified air with 5% CO2 to a confluence of 80–90% before being used for further assays.
Intrinsic cytotoxicity of test compounds was determined by an MTT assay as previously described. A2780 cells were seeded in 96-well plates (Starlab GmbH, Hamburg, Germany) at a density of 20,000 cells/well and allowed to attach for 12 h. Cells were then treated with increasing concentrations of the test compounds. After 72 h, MTT (3-(4,5-dimethylthiazol-2-yl)-2,5-diphenyltetrazolium bromide) (BioChemica, Applichem GmbH, Darmstadt, Germany) solution (5 mg/mL in phosphate-buffered saline) was added to determine cell survival. The formazan dye was dissolved in DMSO (Sigma-Aldrich, Darmstadt, Germany) after 1 h. Absorbance was measured at 570 nm and 690 nm in a Multiskan microplate photometer (Thermo Fisher Scientific, Waltham, MA, USA). Concentration-response curves were generated using the four-parameter logistic equation (GraphPad Prism 9.0, San Diego, USA), and mean IC50 values were calculated in triplicates based on at least three different experiments.

Healthy Fibroblast 2 = test: Cytotoxicity against healthy fibroblast 2; format: cell-based; conditions: Homo sapiens, healthy individually-derived fibroblasts
Description: as §2, §3

NALM6 cells = test: CellTiter-Glo cell viability assay, NALM6; format: cell-based, human; conditions: for IC50: Homo sapiens, NALM-6, B-ALL, 72 h, CellTiter-Glo, n = 3; for Selectivity index range healthy fibroblasts vs NALM6: SI = (healthy fibroblast IC50)/(leukemia cell line IC50), range over two fibroblasts
Description: as §2, §3

K562 cells = test: Annexin V-PI staining; format: cell-based, human; conditions: 48 h, 0.4 µM or 0.8 µM
Description: To evaluate the induction of apoptosis upon respective inhibitor treatment, K562 cells were incubated (48 h) with inhibitors (0.4 µM or 0.8 µM) or with vehicle control (DMSO). The induction of apoptosis/necrosis was analyzed by measuring hypodiploid DNA content, mitochondrial potential, and exposure of phosphatidylserine after annexin/propidium iodide (PI) staining kit (BD, Franklin lakes, NJ, USA) using FACS.

human HDAC6 (hHDAC6) = molecular target: T1, human HDAC6 (hHDAC6) (Homo sapiens, UniProt Q9UBN7); test: In vitro human HDAC6 assay (ZMAL substrate); format: biochemical; conditions: for SI 1/6: Selectivity Index = (hHDAC1 IC50)/(hHDAC6 IC50)
T1 construct: purchased BPS Bioscience Inc. 50006
T1 sequence (Q9UBN7 1-1215): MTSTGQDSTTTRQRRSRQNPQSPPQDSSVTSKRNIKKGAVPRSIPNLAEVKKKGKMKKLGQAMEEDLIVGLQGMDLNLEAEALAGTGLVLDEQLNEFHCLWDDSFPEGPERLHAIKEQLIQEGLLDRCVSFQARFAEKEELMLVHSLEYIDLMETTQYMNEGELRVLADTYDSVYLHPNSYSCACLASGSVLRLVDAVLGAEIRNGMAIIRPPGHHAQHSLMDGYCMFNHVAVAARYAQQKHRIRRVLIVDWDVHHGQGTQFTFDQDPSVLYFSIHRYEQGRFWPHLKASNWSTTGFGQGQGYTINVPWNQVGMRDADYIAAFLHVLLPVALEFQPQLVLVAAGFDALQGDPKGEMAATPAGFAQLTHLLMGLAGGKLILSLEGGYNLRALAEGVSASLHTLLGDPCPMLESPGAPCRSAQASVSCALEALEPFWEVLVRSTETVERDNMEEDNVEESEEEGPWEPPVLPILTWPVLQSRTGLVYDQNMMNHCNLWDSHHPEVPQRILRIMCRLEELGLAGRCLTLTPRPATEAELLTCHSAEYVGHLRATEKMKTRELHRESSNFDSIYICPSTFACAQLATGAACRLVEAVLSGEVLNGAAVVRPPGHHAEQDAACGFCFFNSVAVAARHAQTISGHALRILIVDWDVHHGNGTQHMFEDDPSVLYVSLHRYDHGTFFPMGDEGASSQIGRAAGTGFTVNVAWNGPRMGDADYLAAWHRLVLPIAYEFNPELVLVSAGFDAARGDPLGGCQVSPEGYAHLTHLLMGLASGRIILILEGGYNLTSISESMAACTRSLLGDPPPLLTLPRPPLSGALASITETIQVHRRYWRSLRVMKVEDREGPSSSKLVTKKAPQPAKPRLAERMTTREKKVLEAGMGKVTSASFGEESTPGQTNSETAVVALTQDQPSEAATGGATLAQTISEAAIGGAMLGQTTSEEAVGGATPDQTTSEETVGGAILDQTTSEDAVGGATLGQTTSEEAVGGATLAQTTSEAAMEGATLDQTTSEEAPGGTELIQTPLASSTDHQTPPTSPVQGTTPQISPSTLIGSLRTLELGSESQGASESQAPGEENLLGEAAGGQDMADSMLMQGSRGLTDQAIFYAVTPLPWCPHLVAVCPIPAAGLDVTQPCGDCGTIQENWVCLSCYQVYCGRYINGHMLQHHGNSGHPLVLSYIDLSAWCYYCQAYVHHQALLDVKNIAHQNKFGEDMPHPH
Description: OptiPlate-96 black microplates (Perkin Elmer Inc., Waltham, MA, USA) were used with an assay volume of 50 µL. […] After an incubation time of 90 min, 50 µL of 0.4 mg/mL trypsin in trypsin buffer (50 mM Tris-HCl, pH 8.0, and 100 mM NaCl) was added, followed by further incubation at 37 °C for 30 min.

[1] = tested on: five leukemia cell lines (K562, HL60, NALM6, HPBALL, MOLM13); test: CellTiter-Glo cell viability assay, panel of five leukemia cell lines; format: cell-based, human; conditions: for antiproliferative activity compared to DHA: number of the five leukemia cell lines in which DHA is exceeded
Description: as §2, §3

Row | Compound | IC50 (P. falciparum Dd2) | IC50 (P. falciparum 3D7) | IC50 (Healthy Fibroblast 1) | IC50 (A2780 cells) | IC50 (Healthy Fibroblast 2) | IC50 (NALM6 cells) | Selectivity index range healthy fibroblasts vs NALM6 (NALM6 cells) | necrosis induction (annexin V/PI) (K562 cells) | IC50 (human HDAC6 (hHDAC6)) | SI 1/6 (human HDAC6 (hHDAC6)) | antiproliferative activity compared to DHA [1] | apoptosis induction (annexin V/PI) (K562 cells) | IC50 ([1]; Homo sapiens, range over K562, HL60, NALM6, HPBALL, MOLM13, read-out: IC50 values across the five leukemia cell lines) | selectivity indices (SI) fibroblasts over leukemia cells, highest ([1]; highest SI across leukemia cell lines and fibroblasts)
1 | C[C@H]1[C@@H](SCc2ccc(C(=O)NO)cc2)O[C@@H]2O[C@@]3(C)CC[C@H]4[C@H](C)CC[C@@H]1[C@@]24OO3 [(α)-7c, N-Hydroxy-4-((((3R,5aS,6R,8aS,9R,10R,12S,12aR)-3,6,9-trimethyldecahydro-12H-3,12-epoxy[1,2]dioxepino[4,3-i]isochromen-10-yl)thio)methyl)benzamide] | 3.4 ± 0.12 nM | 3.3 ± 1.4 nM | 12690 ± 120 nM | 1100 ± 250 nM | 7410 ± 1400 nM | 280 ± 50 nM | 27-45 | induced significant necrosis | 36 ± 8 nM | 56 | all five cell lines |  |  | 
2 | C[C@H]1[C@H](SCc2ccc(C(=O)NO)cc2)O[C@@H]2O[C@@]3(C)CC[C@H]4[C@H](C)CC[C@@H]1[C@@]24OO3 [(β)-7c, N-Hydroxy-4-((((3R,5aS,6R,8aS,9R,10S,12S,12aR)-3,6,9-trimethyldecahydro-12H-3,12-epoxy[1,2]dioxepino[4,3-i]isochromen-10-yl)thio)methyl)benzamide] | 3.2 ± 0.02 nM | 3.6 ± 1.1 nM | 14700 ± 3420 nM | 880 ± 130 nM | 17800 ± 6040 nM | 250 ± 10 nM | 59-71 |  | 41 ± 9 nM | 68 | outperforming DHA in four out of five | significantly induced apoptosis as compared to DHA |  | 
3 | C[C@@H]1CC[C@H]2[C@@H](C)C(OCc3ccc(/C=C/C(=O)NO)cc3)O[C@@H]3O[C@@]4(C)CC[C@@H]1[C@]32OO4 (stereo partly drawn) [Compound 7a, (E)-N-Hydroxy-3-(4-((((3R,5aS,6R,8aS,9R,12R,12aR)-3,6,9-trimethyldecahydro-12H-3,12-epoxy[1,2]dioxepino[4,3-i]isochromen-10-yl)oxy)methyl)phenyl)acrylamide] | 1.7 ± 0.92 nM | 2.6 ± 1.4 nM | 13100 ± 100 nM | 1950 ± 520 nM | 6340 ± 790 nM | 150 ± 10 nM | 42-87 |  | 187 ± 4 nM | 3 | all five cell lines | significantly induced apoptosis as compared to DHA | 150 to 1360 nM | up to 87
4 | C[C@H]1[C@@H](O)O[C@@H]2O[C@@]3(C)CC[C@H]4[C@H](C)CC[C@@H]1[C@@]24OO3 [DHA, dihydroartemisinin] | 1.8 ± 0.02 nM | 3 ± 2.7 nM | > 25000 nM | 970 ± 70 nM | > 25000 nM | 2500 ± 160 nM |  |  | > 10000 nM |  |  |  |  | 
